Reference: PubChem BioAssay AID1963423 (Molecular Pharmacology Branch, DTP, NCI, 2024)
Several values for one entry are separate records, joined by “and”; a condition that tells them apart may be missing. Equal entries are not always repeated.

System: 439559-082-T-J2-PDC complex spheroid growth
Test: Anticancer human tumor 439559-082-T-J2-PDC patient-derived colon adenocarcinoma cell line growth inhibition [Asc]
Conditions: for viability, T/C: stronger effect = lower value
Experimental: Multicellular complex tumor spheroid response to apoptosis pathway targeting inhibitors Alrizomadlin, Pelcitoclax, and Dasminapant in combination with a variety of drugs and investigational agents in selected tumor cell lines
The MDM2 inhibitor alrizomadlin, the Bcl-2/Bcl-xL inhibitor pelcitoclax, and the IAPs inhibitor dasminapant were evaluated both individually and in combination with standard of care and investigational anticancer small molecules within a complex spheroid model of solid tumors. . Complex spheroids include a stromal component modeled by human endothelial cells (HUVEC) and fibroblasts modeled by human mesenchymal stem cells (MSCs). The concentration ranges selected for each drug and investigational agent were based upon clinically achievable concentrations if the clinical Cmax of the agent was known.
Compounds. The drugs and investigational agents: alrizomadlin (APG-115; NSC831270), pelcitoclax (APG-1252; NSC835773), dasminapant (APG-1387;NSC834197), TAK-243 (NSC785004), copanlisib (NSC809693), olaparib (NSC753686), talazoparib (NSC767125), cobimetinib (NSC 768068), eltanexor (KPT-8602, NSC 794443), abemaciclib (NSC 768073), sotorasib (NSC818433), adagrasib (NSC 831453), MRTX-1133 (NSC 836407), Iadademestat (ORY1001, NSC 806812), and RMC-4630 (NSC839698), were obtained from the NCI Developmental Therapeutics Program Chemical Repository. The FDA-approved anticancer drug set is available from the Developmental Therapeutics Program at https://dtp.cancer.gov/organization/dscb/obtaining/available plates.htm. […] The stock solutions were prepared in dimethyl sulfoxide (DMSO, Sigma-Aldrich, St. Louis, MO, cat. D2650) at 800-fold the tested concentration and stored at -70 degrees C prior to their use. All drugs and investigational agents were tested over a range starting from a high concentration at or near the clinical Cmax and decreasing in half-log increments. If the clinical Cmax for an agent had not been determined, the highest concentration tested was 10 microM.
The patient-derived cancer (PDC) cell lines include five colon adenocarcinomas: 186277-243-T-J2-PDC, 616215-338-R-J1-PDC, 439559-082-T-J2-PDC, 463943-066-T-J2-PDC, and 519858-162-T-J1-PDC; three pancreatic carcinomas: 323965-272-R-J2-PDC, 521955-158-R6-J3-PDC, and 521955-158-R2-J5-PDC; two uterine sarcomas: 327498-152-R-J2-PDC and 993429-296-R-J1-PDC; two rhabdomyosarcomas: 755483-174-R-J1-PDC and 772245-204-R-J1-PDC; two soft tissue sarcomas: 126254-015-R-J1-PDC and 494315-158-R-J1-PDC; two malignant fibrous histiocytomas: 317291-083-R-J1-PDC and 596521-263-R-J1-PDC; two breast carcinomas: 171881-019-R-J1-PDC and 885512-296-R-J2-PDC; and one ovarian carcinoma: 6556581-035-R-J-PDC were obtained from the NCI PDMR, (https://pdmr.cancer.gov). The established cell lines HSSY-2 synovial sarcoma (RRID:CVCL 8719), SYO-1 synovial sarcoma (RRID:CVCL_7146), MPNST malignant peripheral neural sheath tumor were obtained from the Sloan Kettering Institute. The following established cell lines were purchased from the American Type Culture Collection (ATCC, Manassas, VA), Sor the received from the NCI repository:, PANC-1 pancreatic carcinoma (CRL-1469, RRID:CVCL_0480), OVCAR-5 ovarian carcinoma (RRID:CVCL_1628), OVCAR-8 ovarian carcinoma (RRID:CVCL_1629), , MCF-7 breast carcinoma (CRL-12584, RRID:CVCL_0031), MDA-MB-231 breast carcinoma (CRL-12532, RRID:CVCL_0062), NCI-H1876 small cell lung carcinoma (CRL-5902, RRID:CVCL_1503), NCI-H510A small cell lung carcinoma (HTB-184, RRID:CVCL_1565), NCI-H1417 (CRL-5869, RRID:CVCL_1469), and NCI-H196 small cell lung carcinoma (CRL-5823, RRID:CVCL_1509). Dr. Peter Houghton (Greehey Children's Cancer Research Institute, University of Texas Health Science Center, San Antonio, TX) provided Rh-18 rhabdomyosarcoma (RRID:CVCL_1659). Pooled donor human umbilical vein endothelial cells (HUVEC, Lonza, cat. CC-2519) and human mesenchymal stem cells (hMSC, Lonza, cat. PT-2501) were purchased from Lonza (Walkersville, MD).
Cell Culture. […]

[1] = compound alone, run of 10/11/2022
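Further: spheroids exposed to agents for 7 days starting day 3 after seeding.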
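Wherever viability, T/C is given: percent of DMSO vehicle control viability with 100% = vehicle.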

IC50 (curve of compound) | SMILES | viability, T/C (compound 0.0316 µM) | viability, T/C (compound 0.1 µM) | viability, T/C (compound 0.316 µM) | viability, T/C (compound 1 µM) | viability, T/C (compound 3.16 µM) | viability, T/C (compound 10 µM) | viability, T/C (compound 0.00316 µM) | viability, T/C (compound 0.01 µM) | further results
4.3 µM and 2.36 µM and 2.43 µM | C#Cc1c(F)ccc2cc(O)cc(-c3ncc4c(N5CC6CCC(C5)N6)nc(OCC56CCCN5CC(F)C6)nc4c3F)c12 (stereo not drawn) | 95.9% and 87.4% and 92.5% | 77.6% and 80.5% and 82.3% | 68.5% and 59.4% and 65.4% | 64.9% and 53.9% and 55.5% | 55.5% and 55.7% and 51.2% | 41% and 37.7% and 39.6% |  |  | 
5.67 µM and 5.69 µM and 6.54 µM | C=C(F)C(=O)N1CCN(c2nc(OCC3CCCN3C)nc3c2CCN(c2cccc4cccc(Cl)c24)C3)CC1CC#N (stereo not drawn) | 91.3% and 104% and 106% | 90% and 103% and 109% | 90.5% and 97.4% and 104% | 96.6% and 97.8% and 102% | 102% and 86.9% and 95% | 7.1% and 14.9% and 23.5% |  |  | 
> 10 µM | C=CC(=O)N1CCN(c2nc(=O)n(-c3c(C)ccnc3C(C)C)c3nc(-c4c(O)cccc4F)c(F)cc23)C(C)C1 (stereo not drawn) | 96.5% and 102% (2×) | 114% and 106% and 101% | 103% and 102% and 108% | 104% and 106% and 114% | 108% and 106% and 92.2% | 103% (2×) and 101% |  |  | 
> 3 µM | CCN1C(C(=O)NC23CCC(C(=O)O)(CC2)CC3)C(c2cccc(Cl)c2F)C2(C(=O)Nc3cc(Cl)ccc32)C12CCCCC2 (stereo not drawn) |  |  |  |  |  |  |  |  | viability, T/C (compound 0.00949 µM): 105% and 100%; viability, T/C (compound 0.03 µM): 101% [middle of 15 runs]; viability, T/C (compound 0.0949 µM): 99.9% [middle of 15 runs]; viability, T/C (compound 0.3 µM): 96.8% [middle of 15 runs]; viability, T/C (compound 0.949 µM): 102% [middle of 15 runs]; viability, T/C (compound 3 µM): 92.1% [middle of 15 runs]; IC50 [1]: > 3 µM
> 1 µM | CCN1CCN(Cc2ccc(Nc3ncc(F)c(-c4cc(F)c5nc(C)n(C(C)C)c5c4)n3)nc2)CC1 | 89.4% and 96.5% and 95.8% | 92% and 89.7% and 89.2% | 93.1% and 92.7% and 81.8% | 84.8% and 84.4% and 70.8% |  |  | 105% and 98.4% and 99.2% | 111% and 104% and 97.7% | 
> 1 µM | CNC(C)C(=O)NC1CN(S(=O)(=O)c2cccc(S(=O)(=O)N3CCC4CCC(C(=O)NC(c5ccccc5)c5ccccc5)N4C(=O)C(NC(=O)C(C)NC)C3)c2)CCC2CCC(C(=O)NC(c3ccccc3)c3ccccc3)N2C1=O (stereo not drawn) | 98.1% [middle of 8 runs] | 99.7% [middle of 9 runs] | 98.3% [middle of 9 runs] | 88.1% [middle of 9 runs] |  |  |  | 103% [middle of 9 runs] | IC50 (compound alone, run of 11/15/2022): > 1 µM
> 1 µM | COc1c(OCCCN2CCOCC2)ccc2c3n(c(=NC(=O)c4cnc(N)nc4)nc12)CCN3 | 81.6% and 87.4% and 102% | 78.7% and 76.9% and 72.9% | 80% and 71.6% and 75.5% | 58.6% and 59% and 69.4% |  |  | 100% and 101% and 93.5% | 104% (2×) and 90.9% | 
 | Cc1c(S(C)(=O)=O)c(-c2cc(F)cc(N3CCN(c4ccc(NS(=O)(=O)c5ccc(NC(CCN6CCC(C(=O)OCCCP(=O)(O)O)CC6)CSc6ccccc6)c(S(=O)(=O)C(F)(F)F)c5)cc4)CC3)c2)c(-c2ccc(Cl)cc2)n1C(C)C (stereo not drawn) |  | 97.4% [middle of 14 runs] | 97.4% [middle of 14 runs] | 91% [middle of 14 runs] | 87.2% [middle of 14 runs] | 74.9% [middle of 14 runs] |  |  | IC50 [1]: > 10 µM
> 3 µM | Cc1nc(N2CCC3(CC2)COC(C)C3N)c(CO)nc1Sc1ccnc(N)c1Cl (stereo not drawn) |  |  |  |  |  |  |  |  | viability, T/C (compound 0.00949 µM): 89.8% and 104% and 107%; viability, T/C (compound 0.03 µM): 93.7% and 111% and 108%; viability, T/C (compound 0.0949 µM): 102% and 99.4% and 101%; viability, T/C (compound 0.3 µM): 110% and 91.8% and 99.9%; viability, T/C (compound 0.949 µM): 99.8% and 94.1% and 92%; viability, T/C (compound 3 µM): 72.1% and 79.7% and 81.7%
> 0.1 µM | Cn1ncnc1[C@H]1c2n[nH]c(=O)c3cc(F)cc(c23)N[C@@H]1c1ccc(F)cc1 | 102% and 105% and 107% | 98.1% and 92.3% and 98.5% |  |  |  |  | 97.6% and 103% and 92% | 95.5% and 95.2% and 97.6% | viability, T/C (compound 0.000316 µM): 104% and 97.5% and 103%; viability, T/C (compound 0.001 µM): 108% and 97.8% and 112%
> 0.3 µM | NC(=O)C(=Cn1cnc(-c2cc(C(F)(F)F)cc(C(F)(F)F)c2)n1)c1cncnc1 |  |  |  |  |  |  |  |  | viability, T/C (compound 0.000949 µM): 111% and 110% and 105%; viability, T/C (compound 0.003 µM): 105% and 102% and 86.8%; viability, T/C (compound 0.00949 µM): 101% and 99% and 94.4%; viability, T/C (compound 0.03 µM): 101% and 91.7% and 89.8%; viability, T/C (compound 0.0949 µM): 92.7% and 89.7% and 90.7%; viability, T/C (compound 0.3 µM): 82% and 86.4% and 78.2%
> 0.1 µM | NC1CCC(NC2CC2c2ccccc2)CC1 (stereo not drawn) | 109% and 103% and 96% | 112% and 106% and 95.2% |  |  |  |  | 112% and 106% and 107% | 114% and 108% and 92.8% | viability, T/C (compound 0.000316 µM): 106% and 107% and 103%; viability, T/C (compound 0.001 µM): 119% and 117% and 92.5%
> 10 µM | O=C(c1cc(Cc2n[nH]c(=O)c3ccccc23)ccc1F)N1CCN(C(=O)C2CC2)CC1 | 98.8% and 105% and 96.8% | 111% and 109% and 90.9% | 99.9% and 95% and 96.8% | 101% and 97.8% and 111% | 105% and 104% and 106% | 102% and 100% and 83.9% |  |  | 
0.334 µM and 0.24 µM and 0.307 µM | O=C(c1ccc(F)c(F)c1Nc1ccc(I)cc1F)N1CC(O)([C@@H]2CCCCN2)C1 | 96.9% and 81.6% and 88.7% | 63.6% and 60.9% and 69.5% | 58% and 50.6% and 49.3% | 13.8% and 24.2% and 28.6% |  |  | 101% and 106% (2×) | 95.1% and 106% and 95.4% | 
